One assay relates to human hair follicle. The assay is described as follows: Human hair follicle survival in vitro model. In kind it is cell-based. On the procedure: We had developed and patented a model for a surviving human follicle in vitro (FR 95-08465) making it possible to evaluate the effect of a substance on follicle survival and extension. We used this in vitro model for evaluating the effect of ecdysterone on hair follicle growth and survival. Various concentrations of this substance were tested: 0.01 μg/ml, 0.1 μg/ml, 1 μg/ml and 10 μg/ml.

A further assay concerns hair follicle. Put plainly: Maintenance of hair follicle integrity in vitro (antibody labelling of compartment markers Ki67, keratin K14, transglutaminase, keratin hHa5). The assay is classed as cell-based, human. The conditions noted are these: 14 days of culture, ecdysterone 0.01 μg/ml, compared with reference follicle at D=0. From the text:
In order to characterize more fully the effect of this substance on the hair follicle, we monitored the mitotic activity of the bulb cells and also the various specific differentiation programmes of the outer sheath, of the inner sheath and of the pilar shaft, in the presence or absence of this substance.
The integrity of the follicle compartments after 14 days of culture was thus monitored by means of antibodies that recognize markers specific for each of these compartments: the mitosis marker Ki67, specific for the matrix (S. Commo & B. A. Bernard, 1997, Br. J. Dermatol. 137: 31-38); keratin K14, specific for the outer sheath (ibid.); transglutaminase, specific for the inner sheath (ibid.); and keratin hHa5, specific for the pillar shaft, and in particular the keratogenic zone and the cuticle (L. Langbein et al., 1999, J. Biol. Chem. 274: 19874-19884).

A further assay has as its system C3H murine model. The conditions noted are these: cited from earlier work.

Turning to `CC(C)(O)CC[C@@H](O)[C@](C)(O)[C@H]1CC[C@@]2(O)C3=CC(=O)[C@@H]4C[C@@H](O)[C@@H](O)C[C@]4(C)[C@H]3CC[C@]12C` [ecdysterone], the “human hair follicle survival in vitro” value in the assay with human hair follicle (ecdysterone 0.01 μg/ml), in the assay with human hair follicle (ecdysterone 0.1 μg/ml) and with human hair follicle (ecdysterone 10 μg/ml) was “significantly increases human hair follicle survival” throughout. The “expression of follicle compartment markers (Ki67, keratin K14, transglutaminase, keratin hHa5)” value with hair follicle is “all the markers studied conserve an expression that is comparable to that of the reference follicle at D=0”. Further, the hair regrowth result in the assay with C3H murine model is given as “stimulate hair regrowth”.

The values above are taken from patent US20050137175A1, “Use of ecdysteroids for preparing dermatological or cosmetological anti-hair loss compositions” (L'OREAL, priority 2003, published 2005).
